Earlier results, collected in patent publication US10993944B2, “Methods and compositions for the treatment of hair loss” (Aneira Pharma, Inc., priority 2019, dated 2021).
Where two headings read alike, the source gives them in different places.

Key:
hair growth [1] = test system: hair growth
[2] = test system: dihydrotestosterone (DHT); conditions: oral; including prostate gland and scalp
[3] = molecular target: human recombinant FP receptor (Homo sapiens, UniProt P43088)
hair growth [4] = conditions: McCarey 2004
[5] = not given; remark: listed apart in the source
[6] = test system: elevated intraocular pressure; conditions: glaucomatous monkey eyes; Gagliuso 2004
[7] = test system: elevated intraocular pressure; conditions: human glaucoma patients non-responsive to latanoprost; Gandolfi 2003

human recombinant FP receptor, sequence (P43088 whole entry): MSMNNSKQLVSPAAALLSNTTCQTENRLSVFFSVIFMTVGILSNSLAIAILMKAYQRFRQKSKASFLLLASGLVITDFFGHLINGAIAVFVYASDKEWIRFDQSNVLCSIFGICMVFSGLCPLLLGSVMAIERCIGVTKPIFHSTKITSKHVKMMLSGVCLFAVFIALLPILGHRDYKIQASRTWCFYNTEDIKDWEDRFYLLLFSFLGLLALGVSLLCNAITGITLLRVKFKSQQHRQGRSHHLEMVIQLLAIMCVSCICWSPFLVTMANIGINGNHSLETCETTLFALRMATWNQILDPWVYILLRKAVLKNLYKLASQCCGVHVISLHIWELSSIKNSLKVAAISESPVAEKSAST

Nc1cc(N2CCCCC2)nc(N)[n+]1OS(=O)(=O)[O-] [minoxidil sulphate]
potency as hair growth agent compared to minoxidil (hair growth [1]): much more potent hair growth agent

CC(C)(C)NC(=O)[C@H]1CC[C@H]2[C@@H]3CC[C@H]4NC(=O)C=C[C@]4(C)[C@H]3CC[C@]12C [finasteride, (1S,3aS,3bS,5aR,9aR,9bS,11aS)—N-tert-butyl-9a,11a-dimethyl-7-oxo-1,2,3,3a,3b,4,5,5a,6,9b,10,11-dodecahydroindeno[5,4-f]quinoline-1-carboxamide]
decrease of production of dihydrotestosterone (DHT) [2]: about 70%

O=C(O)CCC/C=C\C[C@@H]1[C@@H](CC[C@@H](O)CCc2ccccc2)[C@H](O)C[C@@H]1O [Latanoprost free acid, Latanoprost acid]
potency compared to PGF2α ([3]; human FP receptors): twice the potency of PGF2α | potency as an FP receptor ligand compared to latanoprost ([3]; human recombinant FP receptor): two-hundred times more potent than latanoprost

CCCCCCCC(=O)CC[C@@H]1[C@@H](C/C=C\CCCC(=O)OC(C)C)[C@@H](O)C[C@H]1O [Uenoprostone isopropyl ester, Unoprostone isopropyl ester]
hair growth (hair growth [4]): cause no hair growth and in fact may inhibit hair growth

CC(C)OC(=O)CCC/C=C\C[C@@H]1[C@@H](CC[C@@H](O)CCc2ccccc2)[C@H](O)C[C@@H]1O [Latanoprost, isopropyl ester of 17-phenyl-13,14-dihydro prostaglandin F2a]
fat solubility compared to bimatoprost: more fat soluble than bimatoprost | solubility in water (words): poorly dissolved in water | solubility in propylene glycol, methanol, ethanol and 2-propanol (highest concentration (5%)): Sufficient amount of solubility can be obtained even at the highest concentration (5%) | solubility in water (words) (listed as latanoprost): poor solubility in water | stability in acidic or basic aqueous solutions ([5]; acidic or basic aqueous solutions): no more than 48 hours | stability in neutral aqueous solutions ([5]; neutral aqueous solutions, room temperature): up to one month

CCCCCCCC(=O)CC[C@@H]1[C@@H](C/C=C\CCCC(=O)O)[C@@H](O)C[C@H]1O [uenoprostone free acid]
hair growth (hair growth [4]): cause no hair growth and in fact may inhibit hair growth

CCNC(=O)CCC/C=C\C[C@@H]1[C@@H](/C=C/[C@@H](O)CCc2ccccc2)[C@H](O)C[C@@H]1O [Bimatoprost]
effect on elevated intraocular pressure in combination with latanoprost [6]: additive to that of latanoprost | response in reducing elevated intraocular pressure [7]: found responsive to bimatoprost
